The source of these data is US20220409643A1, “ROR Gamma T Inhibitors and Topical Uses Thereof” (Dermira, inc., priority 2019, published 2022).

The structures appear in SMILES notation.

One assay relates to IL17A. Put plainly: skin Resident Immune Cell Assay (sRICA), Th17 model, IL17A protein in media. It counts as cell-based. The note with it: 100 uM solution in 1% DMSO/OD applied topically to human skin; media collected 24 hours after Th17 activation. As to the method: A skin Resident Immune Cell Assay (sRICA) was used to test compounds for reduction of IL-17A protein upregulation in the Th17 sRICA model. In this model, human surgical skin waste was cultured in a transwell system, with the dermis in contact with cell culture media and the stratum corneum exposed to air. To perform the assay, each human skin sample was defatted and dermatomed to 750μm. Next, 8 mm punch biopsies were obtained and placed in a membrane transwell. The transwells were inserted into culture wells with complete media, and a cocktail of cytokines and antibodies were added to promote skin resident immune cell polarization.
RORγt inhibitors were prepared as a 100 uM solution in 1% DMSO/OD. […] of the prepared topical solution was applied to sRICA wells prepared for topical drug evaluation. Drugs were allowed to penetrate the skin overnight, for up to 24 hours prior to Th17 activation. Media was collected 24 hours after Th17 activation for IL17A protein assessment. IL17A protein was evaluated using the Quanterix IL17A detection kit on the SiMoA platform (via CRO Translational Biosciences). There was significant upregulation of IL17A with Th17 activation. Each study was normalized to the % max of IL17A production (i.e. the average IL17A concentration of Th17 activated skin alone) was set to 100%, all other values (untreated no activation and treated samples) were obtained as a percentage of this. […]
Compound `COCc1ccc([C@@H](NC(=O)Cn2cnccc2=O)C(=O)Nc2ccc(C(C)(C)C)c(F)c2)cc1` came in with an inhibition at 100 µM of 72.1%. On the same count and under the same terms, as for `COc1ccc2c(c1)CCN(C(=O)c1cc(O)no1)[C@H]2C(=O)Nc1ccc(C(C)(C)C)c(F)c1` (stereo in doubt) [N-(4-tert-butyl-3-fluorophenyl)-2-((3-hydroxy-1,2-oxazol-5-yl)carbonyl)-6-methoxy-1,2,3,4-tetrahydroisoquinoline-1-carboxamide], the figure is 36%; as for `COc1ccc2c(c1)CCN(C(=O)c1cc(O)no1)[C@H]2C(=O)Nc1cc(F)c2c(c1)CCC2(C)C` (stereo in doubt) [N-(7-fluoro-1,1-dimethyl-2,3-dihydro-1H-inden-5-yl)-2-((3-hydroxy-1,2-oxazol-5-yl)carbonyl)-6-methoxy-1,2,3,4-tetrahydroisoquinoline-1-carboxamide], 42.3%.

The assay is the same for the next values; noted with them: Homo sapiens, 24 h, 100 uM solution in 1% DMSO/OD applied topically to human skin; media collected 24 hours after Th17 activation.
In turn, `COCc1ccc([C@@H](NC(=O)Cn2ccc(=O)cc2)C(=O)Nc2ccc([Si](C)(C)C)c(F)c2)cc1` had an inhibition at 100 µM of 78.4%. On the same count and under the same terms, the figure for `COc1ccc([C@H](C(=O)Nc2ccc([Si](C)(C)C)c(F)c2)N(C)C(=O)c2cc(O)no2)cc1` is 76.9%; for `CC[Si](C)(C)c1c(F)cc(NC(=O)[C@H]2c3ccc(COC)nc3CCN2C(=O)Cc2cc(O)no2)cc1F` it is 68.9%; for `COc1ccc([C@@H](NC(=O)c2cc(O)no2)C(=O)Nc2ccc([Si](C)(C)C)c(F)c2)cc1` it is 55.3%. On the same count and under the same terms, the figure for `COCc1ccc([C@@H](NC(=O)CNC(C)=O)C(=O)Nc2ccc([Si](C)(C)C)c(F)c2)cc1` is 48.8%; for `COCc1ccc([C@@H](NC(=O)Cn2c(=O)cc[nH]c2=O)C(=O)Nc2ccc([Si](C)(C)C)c(F)c2)cc1` it is 40.7%. The same measure, in the same setting: as for `COCc1ccc([C@@H](NC(=O)C2CNC(=O)C2)C(=O)Nc2ccc([Si](C)(C)C)c(F)c2)cc1` (stereo in doubt) [(3R)-N-((1R)-2-((3-fluoro-4-(trimethylsilyl)phenyl)amino)-1-(4-(methoxymethyl)phenyl)-2-oxoethyl)-5-oxopyrrolidine-3-carboxamide], the figure is 75.7%; as for `CN(C(=O)c1cc(O)no1)[C@@H](C(=O)Nc1cc(F)c([Si](C)(C)C)c(F)c1)C1CCOCC1` (stereo in doubt) [N-(2-((3,5-difluoro-4-(trimethylsilyl)phenyl)amino)-2-oxo-1-(tetrahydro-2H-pyran-4-yl)ethyl)-3-hydroxy-N-methyl-1,2-oxazole-5-carboxamide], 82.5%. On to `COc1ccc2c(c1)CCN(C(=O)c1cc(O)no1)[C@H]2C(=O)Nc1ccc([Si](C)(C)C)c(F)c1` (stereo in doubt) [N-(3-fluoro-4-(trimethylsilyl)phenyl)-2-((3-hydroxy-1,2-oxazol-5-yl)carbonyl)-6-methoxy-1,2,3,4-tetrahydroisoquinoline-1-carboxamide], for which 100 µM produced 7.69% inhibition. `COCc1ccc([C@@H](NC(=O)C2CCN(C(C)=O)CC2)C(=O)Nc2ccc([Si](C)(C)C)c(F)c2)cc1` [1-acetyl-N-((1R)-2-((3-fluoro-4-(trimethylsilyl)phenyl)amino)-1-(4-(methoxymethyl)phenyl)-2-oxoethyl)piperidine-4-carboxamide] showed an inhibition at 100 µM of 77.5%. `COc1ccc2c(c1)CCN(C(=O)CCCC(=O)O)[C@H]2C(=O)Nc1cc(F)c([Si](C)(C)C)c(F)c1` [5-((1R)-1-((3,5-difluoro-4-(trimethylsilyl)phenyl)carbamoyl)-6-methoxy-3,4-dihydroisoquinolin-2(1H)-yl)-5-oxopentanoic acid] showed an inhibition at 100 µM of 76.6%. Take `COCc1ccc2c(c1)CCN(C(=O)CCCC(=O)O)[C@H]2C(=O)Nc1cc(F)c([Si](C)(C)C)c(F)c1` [5-((1R)-1-((3,5-difluoro-4-(trimethylsilyl)phenyl)carbamoyl)-6-methoxymethyl-3,4-dihydroisoquinolin-2(1H)-yl)-5-oxopentanoic acid]: the inhibition at 100 µM is 77.4%.
